Structures are written as SMILES.

Take `CCOC(=O)c1sc2ncccc2c1Br`: the melting point – broadly, the temperature of the solid-liquid transition – was in the range of 100 to 102 °C.

As for `N#Cc1c(N2CCN(C(=O)c3cccs3)CC2)c2sccc2n(Cc2ccc(F)cc2)c1=O`, the melting point was 286 °C.

As for `O=S(=O)(Nc1ccccc1O)c1cc(S(=O)(=O)Nc2ccccc2O)c2cc(O)ccc2c1`, the melting point was 118 to 120 °C.

`Cn1c(COc2nc(CCC(=O)O)oc2-c2ccccc2)nc2ccccc21` returned a melting point of 222 to 224 °C.

Consider `O=C(c1ccccc1)n1c(=O)n(C2CCN(CCCN3c4cccc5cccc(c45)S3(=O)=O)CC2)c2ccccc21`, for which the melting point was 133 °C.

Compound `CCCCCCCCOc1ccc(C(N)=O)c(O)c1` came in with a melting point of 123 to 124 °C.

In the case of `CC1(C)[C@@H](CN2CC[C@@H](O)C2)CC[C@@]1(C)NCC(=O)N1C[C@@H](F)C[C@H]1C#N`, the melting point was in the range of 130 to 135 °C.

In turn, `CCN1C(=O)NC(Cc2c[nH]c3ccccc23)C1CCc1cc(C(F)(F)F)cc(C(F)(F)F)c1` (stereo not given) registered a melting point of 228 to 230 °C.

`COc1ccc(C2CCCCC2)cc1-c1csc(NC(=O)N2CCN(C3CCOCC3)CC2)n1` came in with a melting point of 226 °C.

Regarding `O=C=Nc1c(Cl)c(Cl)cc(Cl)c1Cl`, the melting point fell in the range of 62.5 to 63.5 °C.

Consider `CCCOCC(=O)c1ccc([N+](=O)[O-])cc1`, for which the melting point was 49 to 50 °C.

Compound `NC(=O)N(O)CCNC(=O)c1cccc(OCc2ccccc2)c1` yielded a melting point of 183 to 185 °C.

`Nc1nc(O)cc(CCl)n1` had a melting point of 195 to 197 °C.

The compound `Cc1c(Nc2ccc([N+](=O)[O-])cc2C(=O)O)cccc1C(F)(F)F` came in with a melting point of 244 to 245 °C.

`Cn1c(=O)n(CC(=O)O)c(=O)c2cc([N+](=O)[O-])ccc21`: the melting point was 217 to 220 °C.

With `CNC(Cc1ccccc1N)c1ccncc1` (stereo not given), the melting point lay within 69 to 71 °C.

`Oc1c2c(nn1-c1ccc(C(F)(F)F)cn1)CCc1ccccc1-2` came in with a melting point of 158 to 159 °C.

Take `Cc1ccc(C)c(S(=O)(=O)N(C)CC(O)(CO)c2ccccc2)c1` (stereo not given): the melting point lay in the range of 114 to 115 °C.

For `COc1ccccc1-n1ccc(=O)c(-c2ccnn2-c2ccccc2)n1`, the melting point was 153 to 154 °C.

For `COC(=O)c1ccccc1S(=O)(=O)NC(=O)N1NC(=O)N(O)C1OC` (stereo not given), the melting point came out at 180 °C.

The compound `CCC(CC)N(O)C(=O)Nc1ccc(C(=O)c2ccccc2)cc1` yielded a melting point of 156 to 157 °C.

Consider `C=CCNc1nc(NC(=O)Nc2ccccc2OC)nc(N(CCC(=O)O)Cc2ccc(Cl)c(Cl)c2)n1`, for which the melting point amounted to 201 °C.

In turn, `O=C(CCCC(=O)c1ccccc1)NC1CCN(Cc2ccc(Cl)c(Cl)c2)CC1` displayed a melting point of 130 °C.

Turning to `CCCS(=O)c1ccc2[nH]c(NC(=O)OC)nc2c1` (stereo not given), the melting point is 215 to 216 °C.

Consider `COc1cc(C=O)ccc1OCC(=O)NCCO[N+](=O)[O-]`, for which the melting point was in the range of 117 to 120 °C.

Compound `O=S(CCCc1nc(-c2ccc(F)cc2)c(-c2ccncc2)[nH]1)c1ccccc1` (stereo not given) displayed a melting point of 146 to 148 °C.

`CC1(C)Oc2ccc(S(=O)(=O)C(F)(F)F)cc2[C@@H](N2Cc3c(F)cccc3C2=O)[C@@H]1O` (relative stereo) returned a melting point of 259 to 261 °C.

Take `Nc1ccccc1-c1cc[nH]n1`: the melting point lay in the range of 122 to 123 °C.

The compound `Cc1ccc(C=Cc2ccccc2C(=O)O)cc1` returned a melting point of 80 to 82 °C.

Take `CCOCc1nc2c(N)nc(C)c(C)c2n1NCCCNS(C)(=O)=O`: the melting point lay within 147 to 149 °C.

For `CCN(CC)C(=O)n1ccc(S(=O)c2ccccc2Cl)n1` (stereo not given), the melting point lay in the range of 54 to 56 °C.

The compound `CNC(=O)CCCCCCCCn1ccnc1` displayed a melting point of 64 to 66 °C.

`C=CC(=O)[C@H](Cc1cc(F)cc(F)c1)NC(=O)OC(C)(C)C` yielded a melting point of 115 °C.

As for `O=C(Nc1ccc(C(=O)SCC2C(=O)OCC2c2ccccc2)cc1)OCc1ccccc1` (stereo not given), the melting point lay in the range of 160 to 162 °C.

With `COc1ccc(C=CN(C)C)c([N+](=O)[O-])c1[N+](=O)[O-]`, the melting point was in the range of 100 to 131 °C.

These data come from a melting point compilation (Tetko et al.; mined from patent text by program, amines drawn as free bases though some values may be those of a salt).
